Assay results published in patent US4675187A, “BBM-1675, a new antibiotic complex” (priority 1985, dated 1987).
“And” between values parts separate entries of the source, which are not always exact repeats. Equal values may be shown once. Read-outs that look alike come from different tables or passages of the source.

Columns and labels:
[1] = tested on: P-388 leukemia; assay: antitumor activity, intravenously implanted P-388 leukemia; format: in vivo, mice
[2] = tested on: B16 melanoma
Description: (§1) Lymphocytic leukemia P-388, lymphoid leukemia L-1210, melanotic melanoma B16 and Lewis lung carcinoma were implanted intraperitoneally into male BDF1 mice at an inoculum size of 10^6, 10^5, 5×10^5 and 10^6 cells per mouse, respectively. Graded doses of test compounds were administered to the mice intraperitoneally 24 hours after the tumor inoculation.
(§2) Death or survival of the treated and non-treated mice was recorded daily, and the median survival time (MST) was calculated for each of the test (T) and control (C) groups.

[3] = tested on: Lewis lung carcinoma
Description: as §1, §2

[4] = toxicity in mice; details: mouse, in vivo
[5] = iv days 1,4,7, doses as MST lines, same order
[6] = ip qd 1→9, doses as T/C lines, same order
[7] = ip qd 1→11, doses as T/C lines, same order

| Compound | T/C ([1]; iv days 1,4,7, 1 mg/kg/day) [%] | T/C ([1]; iv days 1,4,7, 10 mg/kg/day) [%] | Survivors on day 5 [1, 5] | Survivors on day 45 [1, 5] | T/C ([2]; ip qd 1→9, 0.003 mg/kg/day) [%] | Average wt. change on day 5 [2, 6] | MST [2, 6] | Survivors on day 5 [2, 6] | Survivors on day 45 [2, 6] | T/C ([3]; ip qd 1→11, 0.003 mg/kg/day) [%] | MST [3, 7] | Survivors on day 5 [3, 7] | Survivors on day 45 [3, 7] | Average wt. change on day 5 ([3]; mouse, in vivo, ip) | Survivors on day 5 ([3]; mouse, in vivo, ip) | LD50 ([4]; ip, LD50, multiple dose (qd 1→9) i.p.) [mg/kg] | LD50 ([4]; ip, LD50, single dose i.p.) [mg/kg] | LD50 ([4]; iv, LD50, single dose i.v.) [mg/kg] |
| --- | --- | --- | --- | --- | --- | --- | --- | --- | --- | --- | --- | --- | --- | --- | --- | --- | --- | --- |
| COc1cccc2c1C(=O)c1c(O)c3c(c(O)c1C2=O)C[C@@](O)(C(=O)CO)C[C@@H]3O[C@H]1C[C@H](N)[C@H](O)[C@H](C)O1 [Adriamycin, adriamycin] | 100 | 100 | 0/6 and 6/6 | 0/6 | – | – | – | – | – | – | – | – | – | – | – | – | – | – |
| CO[C@@H]1[C@H](O)C[C@@H](O[C@@H]2C[C@H](Oc3cc4cc5c(c(O)c4c(O)c3C)C(=O)[C@@H](O[C@H]3C[C@@H](O[C@H]4C[C@@H](O[C@H]6C[C@](C)(O)[C@@H](OC(C)=O)[C@H](C)O6)[C@H](O)[C@@H](C)O4)[C@H](O)[C@@H](C)O3)[C@H]([C@H](OC)C(=O)[C@@H](O)[C@@H](C)O)C5)O[C@H](C)[C@@H]2OC(C)=O)O[C@@H]1C [Chromomycin A3, chromomycin A3] | – | – | – | – | 109 | +2.2 g | 25.5 days and 23.0 days and 21.0 days and 18.0 days | 6/6 | 0/6 | 105 | 21.5 days and 17.0 days and 11.5 days | 6/6 | 1/6 and 0/5 and 0/6 | +1.7 g | 5/5 | 0.23 | 0.81 | 0.41 |
